This note sets out measurements from article PMC7749107, “Identification and functional characterization of the first molluscan neuromedin U receptor in the slug, Deroceras reticulatum” (Scientific Reports, 2020).

pEC50: −log10 of the molar value. Entries after “also recorded” stand apart in the source; their conditions may differ. Where two headings read alike, the source gives them in different places. Where a SMILES comes first, the peptide text is derived from it.

The target in assay [1] is T1, DretNmU-Ra (Deroceras reticulatum, UniProt A0A888YNE3).
T1 sequence (A0A888YNE3 1-505): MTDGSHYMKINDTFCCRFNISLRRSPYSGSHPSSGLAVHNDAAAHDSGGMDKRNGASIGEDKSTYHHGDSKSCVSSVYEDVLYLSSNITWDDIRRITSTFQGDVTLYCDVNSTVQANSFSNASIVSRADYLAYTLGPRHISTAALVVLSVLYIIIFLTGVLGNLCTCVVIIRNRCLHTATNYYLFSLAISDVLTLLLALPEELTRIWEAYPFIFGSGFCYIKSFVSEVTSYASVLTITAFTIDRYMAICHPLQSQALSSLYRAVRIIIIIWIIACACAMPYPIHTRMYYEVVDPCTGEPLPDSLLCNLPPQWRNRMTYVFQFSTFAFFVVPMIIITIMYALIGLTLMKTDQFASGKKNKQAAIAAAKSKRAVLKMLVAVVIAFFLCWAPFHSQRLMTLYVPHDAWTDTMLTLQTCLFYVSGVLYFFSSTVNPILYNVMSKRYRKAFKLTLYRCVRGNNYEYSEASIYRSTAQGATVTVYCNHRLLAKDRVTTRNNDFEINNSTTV
Put plainly: Calcium mobilisation (FLIPR Calcium 6 fluorescence) receptor activation assay, Sf9 cells stably expressing DretNmU-Ra. It counts as cell-based. To be noted: for Binding activity (receptor response, ∆fluorescence) at single concentration: 500 nM peptide, three to four replicates, result in words. The procedure:
(§1) Sf9 cells were cultured in a 50 ml-Erlenmeyer flask while shaking at 145 rpm at 28 °C using Insectagro Sf9 Medium (Corning) supplemented with 5% heat-inactivated fetal bovine serum (HyClone, USA) and antibiotics (penicillin and streptomycin; Gibco). Three µg of either pIB/DretNmU-Ra or pIB/DretNmU-Rb plasmid was added to 100 μl of serum-free medium, and 15% CellFectin II (Invitrogen) in 100 μl serum-free medium was prepared, and both were placed at room temperature for 5 min. Samples were combined by pipetting and placed at room temperature for another 20 min. The plasmid-CellFectin II mixture was then added to a T-25 flask containing a layer of Sf9 cells covering about 70% of the surface, and incubated overnight. The next morning, the medium was replaced with fresh medium containing 50 μg/ml blasticidin. […] When culture was confluent, the recombinant cells were lifted and transferred to suspension cultures and grown until the exponential growth phase, and then stock cultures were frozen in liquid nitrogen. These frozen stock cell lines were thawed, cultivated for several passages in media containing 20 μg/ml blasticidin, and used for the ligand binding assays.
(§2) Two days before the binding assay, ~ 50,000 Sf9 cells expressing the DretNmU-Ra or -Rb from suspension cultures were dispensed into each well of a black 96-well plate (Corning C3603) and incubated at 28 °C overnight. At 48 h, cells were rinsed once with 100 μl of fresh medium without FBS. After removing the media, cells were incubated with 95 μl of 1 × FLIPR Calcium 6 reagent (Molecular Devices, USA) containing 2.5 mM probenecid at room temperature in the dark for 1 h. The Calcium 6 reagent-loaded cells were transferred to the Flexstation 3 multi-mode microplate reader (Molecular Devices) to measure fluorescence change (∆fluorescence) before and after loading 5 μl of peptide ligands (20×), detecting emission at 535 nm with excitation at 485 nm. Fluorescence measurements from each well on the column were taken every 5 s for 4 min. The peptide ligand was added by automatic pipettor once at 30 s from the beginning, and 5 μl of 5 μM ionomycin was added at 3 min to confirm calcium activity. Baseline fluorescence was determined by averaging 5 time points from each well prior to treatment with ligand and the resulting response was expressed as a percent increase in fluorescence relative to the baseline value.
(§3) For the initial screening and structure–activity tests, each cell line was exposed to a single concentration of 500 nM of each peptide or control. For the dosage-response assay, threefold serial dilutions of selected ligands with water were used, giving final ligand concentrations between 8 pM and 1.5 μM. The mean response from four wells receiving the same treatment in the same plate was regarded as one replicate, and at least three replicates from independent assays on different cell plates were analyzed. Data were transformed into a log scale and fit into the non-linear regression curve. EC50 values were obtained by statistical analysis using the sum of squares F-test function using GraphPad Prism version 8.0 (San Diego, CA, USA).

In assay [2] the target is T2, DretNmU-Rb (Deroceras reticulatum, UniProt A0A888YNJ5).
T2 sequence (A0A888YNJ5 1-502): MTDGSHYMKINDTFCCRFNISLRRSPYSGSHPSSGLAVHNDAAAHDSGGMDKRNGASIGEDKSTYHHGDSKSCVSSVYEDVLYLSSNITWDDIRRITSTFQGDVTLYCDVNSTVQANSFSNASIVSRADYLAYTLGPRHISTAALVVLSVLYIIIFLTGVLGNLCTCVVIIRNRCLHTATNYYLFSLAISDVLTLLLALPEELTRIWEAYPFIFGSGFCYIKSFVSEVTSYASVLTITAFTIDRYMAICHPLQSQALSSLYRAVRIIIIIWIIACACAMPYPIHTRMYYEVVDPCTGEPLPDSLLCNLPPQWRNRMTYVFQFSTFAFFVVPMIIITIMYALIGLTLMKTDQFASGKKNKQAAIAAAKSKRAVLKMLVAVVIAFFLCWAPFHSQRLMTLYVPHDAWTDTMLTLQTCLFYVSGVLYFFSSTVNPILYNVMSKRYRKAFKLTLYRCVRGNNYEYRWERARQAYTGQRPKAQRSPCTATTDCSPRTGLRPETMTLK
Put plainly: Calcium mobilisation (FLIPR Calcium 6 fluorescence) receptor activation assay, Sf9 cells stably expressing DretNmU-Rb. It counts as cell-based. To be noted: for Binding activity (receptor response, ∆fluorescence) at single concentration: 500 nM peptide, three to four replicates, result in words. How it is done:
as §1, §2, §3
In general terms: Calcium assays in cells follow changes in intracellular calcium, usually with a dye or a luminescent sensor.

Assay [3] relates to Deroceras reticulatum. Put plainly: Injection bioassay of the peptides in the slug. Type of assay: in vivo. To be noted: n = 4; for Atypical behaviors after injection: 10 nmol peptide in 5 μl water injected into the foot, observed for initial 30 min, compared with water control; for Mortality after 3 days: 10 nmol peptide in 5 μl water injected into the foot of adult slugs, 18 °C. The procedure:
Two peptides, QPPLPRYa and QPPVPRYa, were dissolved in purified water to obtain a 2 mM concentration and individually injected into the adult slugs (270–520 mg in weight). A Hamilton syringe was used to inject a dose of 10 nmol peptide in 5 μl water or water only for control into the posterior part of the foot of the slug (n = 4). The foot was chosen as the injection site in order to avoid possible damage to internal organs, which are primarily located underneath the mantle. […] Since the treated slugs secreted a large amount of the defensive mucus, weight loss was assessed by weighing the slugs on a VWR B2-Series Analytical Balance immediately before the treatment and again 3 days later. Post treatment weights were obtained after slugs were placed under wet conditions (slugs placed in a ventilated 8 oz plastic container lined with damp tissue paper) or under dry conditions (same container type without damp tissue paper). Slugs were placed under these conditions approximately 30 min after injection. These plastic containers were maintained in a growth chamber (Thermo Scientific Precision Model 818) at 18 °C and 12 h photoperiod. Statistical analysis was performed by One-way ANOVA followed by Dunnett’s multiple comparisons test using GraphPad Prism version 8.0 (GraphPad Software, CA, USA).

Setting [4] is: Sf9 cells stably expressing DretNmU-Ra.
The mark [5] stands for this setting: Sf9 cells stably expressing DretNmU-Rb.
[6] abbreviates: Sf9 cells stably expressing DretNmU-Ra, calcium fluorescence, threefold serial dilutions 8 pM to 1.5 μM, four to five replicates from independent assays, each the mean of four wells, read-out: EC50, normalized concentration-response.
Setting [7] is: Sf9 cells stably expressing DretNmU-Rb, calcium fluorescence, threefold serial dilutions 8 pM to 1.5 μM, four to five replicates from independent assays, each the mean of four wells, read-out: EC50, normalized concentration-response.

Consider “PLPRYa [N-terminally truncated pentapeptide of QPPLPRYa]”, for which the “Binding activity (receptor response, ∆fluorescence) at single concentration” value (“Binding activity” below) in assay [1] (setting [4]) and in assay [2] (setting [5]) was “gradual decrease of the binding ability” throughout.
With “QPPLPRWa [modified QPPLPRYa, C-terminal Y replaced with W]”, the “Binding activity” value in assay [1] (setting [4]) and in assay [2] (setting [5]) was “dramatically reduced in its binding activity; also recorded: activity was eliminated” in each case.
Regarding `CC[C@H](C)[C@H](NC(=O)[C@H](CCCNC(=N)N)NC(=O)[C@@H]1CCCN1C(=O)[C@H](CCCNC(=N)N)NC(=O)[C@@H]1CCCN1C(=O)[C@@H](NC(=O)[C@H](C)N)C(C)C)C(N)=O` [AVPRPRIa] (H-AVPRPRI-NH2; N-terminus assumed), the “Binding activity” value in assay [1] (setting [4]) and in assay [2] (setting [5]) was “evoked distinct binding” throughout. For the same compound, the pEC50 in assay [1] (setting [6]) was 8.19; in assay [2] (setting [7]), 7.91.
As for `CC(C)[C@H](NC(=O)[C@@H]1CCCN1C(=O)[C@@H]1CCCN1C(=O)[C@@H](N)CCC(N)=O)C(=O)N1CCC[C@H]1C(=O)N[C@@H](CCCNC(=N)N)C(=O)N[C@@H](Cc1ccc(O)cc1)C(N)=O` [QPPVPRYa] (H-QPPVPRY-NH2), the pEC50 in assay [1] was 8.19; in assay [2], 7.90. The “Binding activity” value in assay [1] (setting [4]) and in assay [2] (setting [5]) was “evoked distinct binding” in each case. In assay [3], the “Atypical behaviors after injection” value is reported as “triggered a series of distinct, atypical behaviors”. Besides, the “Mortality after 3 days” value was 50% in assay [3] (dry conditions) and 0% in assay [3] (wet conditions).
As to `CC(C)C[C@H](NC(=O)[C@@H]1CCCN1C(=O)[C@@H]1CCCN1C(=O)[C@@H](N)CCC(N)=O)C(=O)N1CCC[C@H]1C(=O)N[C@@H](CCCNC(=N)N)C(=O)N[C@@H](Cc1ccc(O)cc1)C(N)=O` [QPPLPRYa] (H-QPPLPRY-NH2; N-terminus assumed), the values for the pEC50 in assay [1] and in assay [2] were 8.85 and 8.39, respectively. The “Binding activity” value in assay [1] (setting [4]) and in assay [2] (setting [5]) was “evoked distinct binding” throughout. For the same compound, in assay [3], the “Atypical behaviors after injection” value was “triggered a series of distinct, atypical behaviors”. Moreover, the “Mortality after 3 days” value in assay [3] (dry conditions) is recorded as 100%; in assay [3] (wet conditions), 50%.
Turning to “QPPLPAYa [modified QPPLPRYa, alanine replacement of R6]”, the “Binding activity” value in assay [1] (setting [4]) and in assay [2] (setting [5]) was “almost completely disappeared” throughout.
“QPPLARYa [modified QPPLPRYa, alanine replacement of P5]”: the “Binding activity” value in assay [1] (setting [4]) and in assay [2] (setting [5]) was “almost completely disappeared” each time.
For “QPPLPRAa [modified QPPLPRYa, alanine replacement of Y7]”, the “Binding activity” value in assay [1] (setting [4]) and in assay [2] (setting [5]) was “almost completely disappeared” each time.
As for `CC(C)C[C@H](NC(=O)[C@@H]1CCCN1C(=O)[C@@H]1CCCN1C(=O)[C@@H](N)CCC(N)=O)C(=O)N1CCC[C@H]1C(=O)N[C@@H](CCCNC(=N)N)C(=O)N[C@@H](Cc1ccccc1)C(N)=O` [QPPLPRFa] (H-QPPLPRF-NH2; N-terminus assumed), the “Binding activity” value in assay [1] (setting [4]) and in assay [2] (setting [5]) was “retained normal activity” in each case. The results for the pEC50 in assay [1] (setting [6]) and in assay [2] (setting [7]) were 7.26 and 6.89, respectively.
For the compound “LPRYa [N-terminally truncated tetra-peptide of QPPLPRYa]”, the “Binding activity” value in assay [1] (setting [4]) and in assay [2] (setting [5]) was “all activity was lost” in each case.
For `CC(C)C[C@H](NC(=O)[C@@H]1CCCN1C(=O)[C@@H]1CCCN1C(=O)[C@@H](N)CC(N)=O)C(=O)N1CCC[C@H]1C(=O)N[C@@H](CCCNC(=N)N)C(=O)N[C@@H](Cc1ccc(O)cc1)C(N)=O` [NPPLPRYa] (H-NPPLPRY-NH2; N-terminus assumed), the values for the pEC50 in assay [1] (setting [6]) and in assay [2] (setting [7]) were 7.49 and 7.60, respectively.
